From US20050014182A1, “Use of calpain for identifying compounds that modulate pain” (Aventis Pharma Deutschland GmbH, priority 2003, published 2005)
Entries after “also recorded” stand apart in the source; their conditions may differ. Read-outs that look alike come from different tables or passages of the source. Where a SMILES comes first, the peptide text is derived from it. The star is where a group is joined. Cbz = O=C(OCc1ccccc1)*

How the values were obtained:
[1] = tested on: zymosan induced thermal hyperalgesia; experiment: Zymosan induced thermal hyperalgesia (paw withdrawal latency, Hargreaves); type: in vivo, rat; details: for thermal hyperalgesia (paw withdrawal latency): rats, 25 mg/kg i.p., 1.25 mg zymosan intraplantar, 25 mg/kg
Method: Unilateral hind paw inflammation and paw oedema was induced by subcutaneous injection of 1.25 mg zymosan (Sigma, München, Germany), suspended in 100 μl phosphate buffered saline (12.5 mg/ml), into the midplantar region of the right hind paw. After 24, 48 or 96 h animals were anaesthetized and killed by cardiac puncture. Spinal cords were excised, directly frozen in liquid nitrogen and then kept at −80° C. until further analysis. Nociceptive paw withdrawal latency to radial heat was assessed according to Hargreaves (Hargreaves et al., 1988), using a commercially available special device (Ugo Basile, Varese, Italy). Rats were placed in transparent plastic chambers (18×29×12.5 cm) on a metal grid (5×5 mm). The heat source consisting of a high projector lamp bulb was focused on the mid-plantar surface of the hind paw. The bulb and an electronic timer were simultaneously activated at the test start, and both were automatically inactivated when a photocell detected a paw withdrawal in response to the heat. Paw withdrawal latencies (PWL) of the right and left paw (treated and untreated paw) were recorded before and every 60 min up to 8 h and 24 h after zymosan injection. […] Six animals were used for each treatment group. (Controls received 1 ml of vehicle.) Treatments were randomly allocated to animals and the observers were unaware of treatment allocations. The percent relative difference in paw withdrawal latency (ΔPWL) between the zymosan treated right and the untreated left hind paw, calculated as: ΔPWL=(right−left)/left×100, was used to asses antinociceptive effects. […] The areas under the ΔPWL versus time curves (AUCΔPWL) as well as the areas under the ΔPV versus time curves (AUCΔPV) were calculated using the linear trapezoidal rule. […] Effects of study medications were assessed by submitting the AUCΔPV from 0-8 h to univariate analysis of variance (ANOVA) with subsequent t-tests employing a Bonferroni […]-correction for multiple comparisons. Statistical significance of ΔPWL was calculated by unpaired Student's t-test (zymosan-treated rats versus control rats). □ was set at 0.05.

m-calpain = experiment: Calpain protein expression in spinal cord after zymosan treatment (anti-m-calpain immunohistochemistry); type: in vivo, rat; details: 96 h after zymosan, pre-treatment with inhibitor
Method: (§1) Unilateral hind paw inflammation and paw oedema was induced by subcutaneous injection of 1.25 mg zymosan (Sigma, München, Germany), suspended in 100 μl phosphate buffered saline (12.5 mg/ml), into the midplantar region of the right hind paw. After 24, 48 or 96 h animals were anaesthetized and killed by cardiac puncture. Spinal cords were excised, directly frozen in liquid nitrogen and then kept at −80° C. until further analysis.
(§2) Calpain inhibitor III (MDL 28170) (Calbiochem, Schwalbach/Ts., Germany) was dissolved in PEG 400/DMSO (1:1) at a concentration of 10 mg/ml. Animals received calpain inhibitor III either as a 12.5 mg/kg or a 25 mg/kg intraperitoneal (i.p.) bolus injection 20 min prior to the intraplantar injection of zymosan. Six animals were used for each treatment group. (Controls received 1 ml of vehicle.) Treatments were randomly allocated to animals and the observers were unaware of treatment allocations.
For immunohistochemical staining, the lumbal spinal cord segments were excised, directly frozen in liquid nitrogen and stored at −80° C. Fresh-frozen tissue sections (14 μm) were cut in a cryostat, mounted on gelatin-subbed slides, and fixed for 10 min in 4% paraformaldehyd in PBS (pH 7.4). Slides were washed with three 10-min washes in PBS and treated for 15 min with PBS containing 0.1% Triton-X 100. […]

calpain [2] = details: described in literature, cited from earlier work
[3] = following systemic administration; cited from earlier work
calpain [4] = experiment: Calpain activity of spinal cord extracts of zymosan treated rats (fluorometric cleavage of Ac-LLY-AFC); type: in vivo, rat
Method: as §1, §2

[5] = tested on: neurofilament light chain (NF-L); experiment: Neurofilament light chain (NF-L) degradation in spinal cord after zymosan treatment (immunohistochemistry); type: in vivo, rat; details: for NF-L immunofluorescence in spinal cord slices: 96 h after zymosan, pre-treatment with inhibitor; for zymosan induced neurofilament degradation: rats, 12.5 mg/kg and 25 mg/kg i.p.
Method: as §1, §2
For immunohistochemical staining, the lumbal spinal cord segments were excised, directly frozen in liquid nitrogen and stored at −80° C. Fresh-frozen tissue sections (14 μm) were cut in a cryostat, mounted on gelatin-subbed slides, and fixed for 10 min in 4% paraformaldehyd in PBS (pH 7.4). Slides were washed with three 10-min washes in PBS and treated for 15 min with PBS containing 0.1% Triton-X 100. The sections were then blocked in 3% BSA in PBS for 1 h to reduce nonspecific binding and then incubated with pimary monoclonal antibody, anti-NFL (1:100; Sigma) and anti-m-calpain (1:50; Affinity BioReagents) for 1 h at 37° C. NF-L and m-calpain were flourescently labelled with a 1 h incubation at 37° C. with Cy3-conjugated secondary antibody (1:600; Sigma). Slides were washed with three 10-min washes in PBS after each incubation. Primary and secondary antibody incubations were performed in PBS containing 1% BSA. Slides were mounted with SlowFade Light Antifade mounting media according to manufacturer's protocol.
Immunohistochemistry was applied to determine the protein levels of neurofilament-L and calpain in rat spinal cord slices after zymosan treatment with and without additional administration of calpain inhibitor III.

[6] = tested on: zymosan induced paw oedema; experiment: Zymosan induced paw inflammation model (paw oedema); type: in vivo, rat; details: for paw oedema (AUC of paw volume increase 0-8 h) versus control: 25 mg/kg i.p., 1.25 mg zymosan intraplantar, 25 mg/kg
Method: Unilateral hind paw inflammation and paw oedema was induced by subcutaneous injection of 1.25 mg zymosan (Sigma, München, Germany), suspended in 100 μl phosphate buffered saline (12.5 mg/ml), into the midplantar region of the right hind paw. After 24, 48 or 96 h animals were anaesthetized and killed by cardiac puncture. Spinal cords were excised, directly frozen in liquid nitrogen and then kept at −80° C. until further analysis. Paw oedema was induced by zymosan injection as described above. The paw volume was measured before and 0.25, 0.5, 1, 2, 4, 6, 8 and 24 h after zymosan injection using a plethysmometer (Ugo Basile, Varese, Italy). Six rats per group were used. At each time point five measurements of the paw volume were taken. The average of these five measurements was used for further analysis. […] Six animals were used for each treatment group. (Controls received 1 ml of vehicle.) Treatments were randomly allocated to animals and the observers were unaware of treatment allocations. The percent relative difference in paw withdrawal latency (ΔPWL) between the zymosan treated right and the untreated left hind paw, calculated as: ΔPWL=(right−left)/left×100, was used to asses antinociceptive effects. To evaluate anti-inflammatory effects, the relative difference between the paw volume before and after zymosan injection (ΔPV) was used. The areas under the ΔPWL versus time curves (AUCΔPWL) as well as the areas under the ΔPV versus time curves (AUCΔPV) were calculated using the linear trapezoidal rule. Statistical evaluation was done by SPSS 9.02 for Windows. Effects of study medications were assessed by submitting the AUCΔPV from 0-8 h to univariate analysis of variance (ANOVA) with subsequent t-tests employing a Bonferroni […]-correction for multiple comparisons. Statistical significance of ΔPWL was calculated by unpaired Student's t-test (zymosan-treated rats versus control rats). □ was set at 0.05.

calpain [7] = experiment: Calpain inhibition (statement, no method given); type: biochemical; details: statement without data
[8] = listed as Calpain inhibitor III
[9] = tested as described for calpain inhibitor III

Compound	thermal hyperalgesia (paw withdrawal latency) [1]	thermal hyperalgesia (paw withdrawal latency) [1, 8]	calpain (m-calpain) protein expression in spinal cord (m-calpain)	calpain (m-calpain) protein expression in spinal cord (m-calpain; listed as MDL-28170)	calpain inhibition (calpain I and II) (calpain [2])	calpain inhibition (calpain I and II) (calpain [2]; listed as MDL 28170)	blood-brain barrier penetration [3]	zymosan-induced protease (calpain) activation in the spinal cord (calpain [4]; rats, 25 mg/kg i.p. 20 min prior to zymosan)	calpain activity of spinal cord extracts (calpain [4]; zymosan treated rats, calpain inhibitor III 12.5 mg/kg or 25 mg/kg i.p. before zymosan (FIG. 2 legend))	NF-L immunofluorescence in spinal cord slices [5]	NF-L immunofluorescence in spinal cord slices [5, 8]	zymosan induced neurofilament degradation [5]	zymosan induced neurofilament degradation ([5]; listed as MDL 28170)	paw oedema (AUC of paw volume increase 0-8 h) versus control ([6]; rats)	paw oedema (AUC of paw volume increase 0-8 h) versus control ([6]; rats, listed as Calpain inhibitor III)	paw inflammation (paw volume increase) ([6]; rats, doses of 12.5 and 25 mg/kg i.p.)	effects on nociception [1, 9]	calpain inhibition (calpain [7])	effects on inflammation [6, 9]
CC(C)[C@H](NC(=O)OCc1ccccc1)C(=O)N[C@H](C=O)Cc1ccccc1 [calpain inhibitor III, Carbobenzoxy-valinyl-phenylalaninal] (Cbz-Val-Phe-aldehyde)	antinociceptive responses; also recorded: significantly higher paw withdrawal latency; also recorded: attenuates	significantly reduces thermal hyperalgesia	not altered	not affected	potent, selective and cell-permeable inhibitor of calpain 1 and II	potent, specific calpain inhibitor	rapidly penetrates the blood-brain barrier	significantly inhibited	reduced	immunofluorescence levels comparable to control slices of untreated rats	reduced the loss of NF-L	attenuated the zymosan induced neurofilament degradation	blocked the degradation of neurofilament protein	significantly reduced the paw edema; also recorded: statistically significant differences	significantly reduces the paw oedema	inhibited paw inflammation dose-dependently; also recorded: attenuates the development of zymosan induced paw inflammation	–	–	–
COc1ccc2c(c1)c(CC(=O)O)c(C)n2C(=O)c1ccc(Cl)cc1 [indomethacin]	–	–	–	–	calpain inhibiting activity	–	–	–	–	–	–	–	–	–	–	–	–	–	–
CC(C)[C@H](NC(=O)OCc1ccccc1)C(=O)N[C@H](C=O)Cc1ccccc1 [MDL-102935] (Cbz-Val-Phe-aldehyde)	–	–	–	–	–	–	–	–	–	–	–	–	–	–	–	–	the same as those of MDL-28170	inhibitor of calpain	the same as those of MDL-28170
